Entries after “also recorded” stand apart in the source; their conditions may differ. Where two headings read alike, the source gives them in different places.
Key:
[1] = set-up: method as in Sun et al. [2013]; settings: Beagle dogs, oral, pure form; ref Sun et al. [2013]; cited from earlier work
[2] = set-up: method as in Lai et al. [2011]; settings: rats, salvianolic acid extract 800 mg/kg oral (Sal A 5.71% of mixture); ref Lai et al. [2011]; cited from earlier work
[3] = Tissue distribution of Sal A in rats; assay type: in vivo, Sprague-Dawley rats; settings: single oral dose 5 mg/kg
Description: Twenty-four healthy, intact Sprague–Dawley rats (male/female, 1/1, 185–215 g, Certificate No. SCXK 2006-0009) were purchased from Vital River Laboratories (Beijing, China). The rats were maintained in air-conditioned animal quarters with alternating 12 h light/dark cycles at a room temperature of 22 ± 2 °C and a relative humidity of 50 ± 10%. The rodents were given a commercial rat chow and water ad libitum. The experiment started after acclimation to the facilities for 7 days. The animal protocols used in this study followed guidelines set forth by the Ethic Committee of Laboratory Animals of the Affiliated Hospital of Qingdao University (QYFYKYLL 2013-2-4-01).
Rats were fasted overnight (∼12 h) and had free access to water throughout the experimental period. In our study, rats were treated as followed: 18 rats were divided into 3 groups randomly (6 rats/group, male/female =1/1) and were all given a single oral dose of 5 mg/kg. The animals were sacrificed 10 min, 1 and 2 h postdosing and stomach, small intestine, heart, liver, spleen, lung, kidney and brain were harvested for drug analysis. The remaining six rats were given normal saline as control. Tissue samples were frozen and maintained at –80 °C immediately until analysis.
Tissues were homogenized in normal saline (2 mL/g, except 6 mL/g for stomach) using a FLUKO F6/10 for 1–2 min over an ice bath. The aliquots of 200 μL homogenized tissues were used for the LC–MS analysis. The remaining steps were the same as sample preparation in “Pharmacokinetic study in vivo”.

[4] = Pharmacokinetic study in vivo (plasma, LC–MS, noncompartmental); settings: both sexes, Sprague-Dawley, rat, rats; for MRT last: read-out: MRT0–t; for AUC(0-t) / Cmax: single dose
Description: Ninety-six healthy, intact Sprague-Dawley rats (male/female, 1/1, 185-215 g, Certificate No. SCXK 2006-0009) were purchased from Vital River Laboratories (Beijing, China). The rats were maintained in air-conditioned animal quarters with alternating 12 h light/dark cycles at a room temperature of 22 ± 2 °C and a relative humidity of 50 ± 10%. The rodents were given a commercial rat chow and water ad libitum. The experiment started after acclimation to the facilities for 7 days. All animal studies were conducted in accordance with “Principles of laboratory animal care” (NIH publication No. 85-23, revised 1985) and under protocols approved by the Ethic Committee of Laboratory Animals of the Affiliated Hospital of Qingdao University ([…] 2013-2-4-01). Rats were fasted overnight (∼12 h) and had free access to water throughout the experimental period. […] The doses applied in this study were determined according to, on the one hand, the doses applied in pharmacodynamic experiments in rats (Yang et al. [2011a]; Yang et al. [2011b]; Yu et al. [2012]; Hou et al. [2017]), and on the other hand, the results of our preliminary absorption experiments. The blood samples were taken crossly from the orbital sinus into tubes pretreated with heparin before dosing and subsequently at 0.083, 0.167, 0.25, 0.333, 0.5, 0.75, 1, 2, 4, 8, 12 and 24 h postdosing. After blood sampling, the samples were centrifuged at 4,500 rpm for 15 min at 4 °C to obtain 200 μL of plasma samples. These samples were immediately frozen and maintained at -80 °C until analysis. Plasma samples were thawed at room temperature before processing. To a 200 μL aliquot of plasma sample, 10 μL of VC (10 mg/mL) and 10 μL of the IS spiking solution (butyl paraben, 1 μg/mL) were added. Then, the mixture was acidified with 100 μL of 1 mol/L HCl and vortex-mixed with 800 μL of EtOAc for 3 min. […] EtOAc (800 μL) was added again to the lower aqueous phase and the extraction process was repeated. […] The residue was reconstituted in 100 μL of MeOH-H2O (50:50, v/v, containing VC 100 μg/mL). After centrifugation at 13,400 rpm for 5 min, 20 μL of the supernatant was injected to the LC-MS system. DAS pharmacokinetic software Data Analysis System Version 3.0 (Bontz Inc., Beijing, China) was used for pharmacokinetic analysis of Sal A concentrations. The noncompartmental model was applied for analysis of the data following intravenous and oral administration of Sal A. The peak plasma concentration (Cmax), the corresponding time (Tmax), the mean residence time (MRT) and the area under the concentration-time curve (AUC) could all be obtained. After intravenous and oral administration of Sal A to rats, plasma concentration was determined by LC-MS. The data obtained from each group was averaged. […] The oral bioavailability (F) was calculated by using AUCoral/dose divided by AUCiv/dose.

[5] = set-up: method as in Pei et al. [2008]; settings: oral administration at 100 mg/kg; ref Pei et al. [2008]; cited from earlier work
[6] = cited from earlier work

## O=C(/C=C/c1ccc(O)c(O)c1/C=C/c1ccc(O)c(O)c1)O[C@H](Cc1ccc(O)c(O)c1)C(=O)O [Sal A, Salvianolic acid A]
[1]
  absolute bioavailability: 1.25%
[2]
  absolute bioavailability of Sal A: 2.5%
[3]
  presence in brain homogenate: detected in brain homogenate
  time to distribute into tissues: ≤ 10 min
[3]; 10 min, 1 and 2 h, 5 mg/kg
  tissue with highest concentration: stomach followed by small intestine and liver; also recorded: highest tissue concentration was found in stomach
[4]; iv, 50 ug/kg, i.v. 50 µg/kg
  MRT last: 0.62 h
  AUC(0-t): 205 ng·h/mL
  Cmax: 579 ng/mL
[4]; iv, 50 ug/kg, i.v. 50 µg/kg, read-out: Tmax
  Tmax: 0.08 h
[4]; iv, 50 ug/kg, i.v. 50 µg/kg, read-out: t1/2 (converted)
  half-life: 370 min
[4]; po, 5 mg/kg, oral 5 mg/kg vs i.v. 50 µg/kg, AUCoral/dose divided by AUCiv/dose, read-out: F (oral bioavailability)
  bioavailability: 0.52%
[4]; po, 5 mg/kg, oral 5 mg/kg, read-out: Tmax
  Tmax: 1 h
[4]; po, 5 mg/kg, oral 5 mg/kg, read-out: t1/2 (converted)
  half-life: 118 min
[4]; po, 10 mg/kg, oral 10 mg/kg vs i.v. 50 µg/kg, read-out: F (oral bioavailability)
  bioavailability: 0.41%
[4]; po, 10 mg/kg, oral 10 mg/kg, read-out: Tmax
  Tmax: 1 h
[4]; po, 10 mg/kg, oral 10 mg/kg, read-out: t1/2 (converted)
  half-life: 103 min
[4]; po, 20 mg/kg, oral 20 mg/kg vs i.v. 50 µg/kg, read-out: F (oral bioavailability)
  bioavailability: 0.39%
[4]; po, 20 mg/kg, oral 20 mg/kg, read-out: Tmax
  Tmax: 1 h
[4]; po, 20 mg/kg, oral 20 mg/kg, read-out: t1/2 (converted)
  half-life: 107 min
[4]; po, 20 mg/kg, oral in pure form, over the doses 5, 10 and 20 mg/kg, read-out: absolute (oral) bioavailability
  bioavailability: 0.39 to 0.52%
[4]; po, 20 mg/kg, oral, over the doses 5, 10 and 20 mg/kg, read-out: half-life period (t1/2)
  half-life: 103 to 118 min
[4]; po, oral, 5–20 mg/kg, read-out: time to peak concentration in plasma (Tmax)
  Tmax: ≤ 1 h
[4]; oral 5 mg/kg
  MRT last: 2.91 h
  AUC(0-t): 106 ng·h/mL
  Cmax: 31.5 ng/mL
[4]; oral 10 mg/kg
  MRT last: 2.33 h
  AUC(0-t): 167 ng·h/mL
  Cmax: 57.4 ng/mL
[4]; oral 20 mg/kg
  MRT last: 2.36 h
  AUC(0-t): 317 ng·h/mL
  Cmax: 112 ng/mL
[5]
  plasma half-life: 3.29 h
[6]; alkaline environment, ref Liu et al. [2011]
  stability in intestinal alkaline environment: instability
[6]; distilled water, room temperature, ref Xu et al. [2008]
  stability in distilled water: instable

Source: article PMC6130628, “Some pharmacokinetic parameters of salvianolic acid A following single-dose oral administration to rats” (Pharmaceutical Biology, 2018)
